Measurements: ChEMBL document CHEMBL4312034, “Virtual screening-driven discovery of dual 5-HT6/5-HT2A receptor ligands with pro-cognitive properties” (Eur J Med Chem, 2020)
Values belong to the compound of their own block, whether it stands above or below them. Activity calls are given as the source filed them. The calls are words filed in the database; no cut-off is given here.

What was measured:
[1] = biological target: D(2) dopamine receptor (Homo sapiens, UniProt P14416); assay: Displacement of [3H]-raclopride from human D2R expressed in HEK293 cells after 1 hr by microbeta plate reader analysis; format: cell-based
[2] = biological target: 5-hydroxytryptamine receptor 7 (Homo sapiens, UniProt P34969); assay: Displacement of [3H]-CT from human 5-HT7 receptor expressed in HEK293 cells after 1 hr by microbeta plate reader analysis; format: cell-based
[3] = Half life in rat liver microsomes up to 60 mins by HPLC-LC/MS analysis
[4] = in vitro; details: rat
[5] = biological target: T1, 5-hydroxytryptamine receptor 6 (Homo sapiens, UniProt P50406); assay: Displacement of [3H]-LSD from human 5-HT6R expressed in HEK293 cells after 1 hr by microbeta plate reader analysis; format: cell-based
[6] = biological target: 5-hydroxytryptamine receptor 2A (Homo sapiens, UniProt P28223); assay: Binding affinity to human 5-HT2AR expressed in HEK293 cells by competitive binding assay; format: cell-based
[7] = tested on: Rattus norvegicus; assay: Reversal of phencyclidine-induced memory impairment in Sprague-Dawley rat at 1 to 3 mg/kg, po for 2 hrs followed by phencyclidine treatment 45 mins prior to testing by novel object recognition test; format: functional, organism-based
[8] = biological target: T2, 5-hydroxytryptamine receptor 1A (Homo sapiens, UniProt P08908); assay: Displacement of [3H]-8-OH-DPAT from human 5-HT1A receptor expressed in HEK293 cells after 1 hr by microbeta plate reader analysis; format: cell-based
T2 sequence (P08908 whole entry): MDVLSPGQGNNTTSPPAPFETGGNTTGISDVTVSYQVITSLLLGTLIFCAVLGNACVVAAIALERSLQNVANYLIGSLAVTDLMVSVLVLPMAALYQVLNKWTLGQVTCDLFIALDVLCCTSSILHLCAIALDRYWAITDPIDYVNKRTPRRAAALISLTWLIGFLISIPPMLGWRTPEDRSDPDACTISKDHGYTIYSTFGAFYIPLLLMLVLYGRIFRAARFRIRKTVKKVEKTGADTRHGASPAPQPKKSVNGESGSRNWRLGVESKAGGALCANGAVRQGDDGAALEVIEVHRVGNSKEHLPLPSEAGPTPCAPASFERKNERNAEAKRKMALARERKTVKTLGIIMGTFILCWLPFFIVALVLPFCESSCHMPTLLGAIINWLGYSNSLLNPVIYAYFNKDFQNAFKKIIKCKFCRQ

[9] = biological target: T1, 5-hydroxytryptamine receptor 6; assay: Binding affinity to 5-HT6R (unknown origin) assessed as inhibitory constant
[10] = biological target: T3, 5-HT2C receptor (Homo sapiens, UniProt P28335); assay: Inhibition of 5-HT2C receptor (unknown origin) at 10^-6 M relative to control
T3 sequence (P28335 whole entry): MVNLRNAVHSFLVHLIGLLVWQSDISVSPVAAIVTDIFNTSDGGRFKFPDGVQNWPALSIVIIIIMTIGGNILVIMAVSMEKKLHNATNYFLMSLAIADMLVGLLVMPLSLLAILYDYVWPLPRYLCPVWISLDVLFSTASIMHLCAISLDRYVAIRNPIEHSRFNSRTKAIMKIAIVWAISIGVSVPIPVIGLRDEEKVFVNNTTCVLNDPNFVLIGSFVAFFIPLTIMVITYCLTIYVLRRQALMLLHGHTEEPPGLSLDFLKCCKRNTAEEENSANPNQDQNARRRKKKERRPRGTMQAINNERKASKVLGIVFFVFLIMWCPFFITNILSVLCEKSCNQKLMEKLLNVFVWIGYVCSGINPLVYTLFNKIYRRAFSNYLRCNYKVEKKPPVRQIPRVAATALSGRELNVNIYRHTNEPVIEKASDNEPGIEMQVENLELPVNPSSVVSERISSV

Sequence of 5-hydroxytryptamine receptor 7 (P34969 whole entry): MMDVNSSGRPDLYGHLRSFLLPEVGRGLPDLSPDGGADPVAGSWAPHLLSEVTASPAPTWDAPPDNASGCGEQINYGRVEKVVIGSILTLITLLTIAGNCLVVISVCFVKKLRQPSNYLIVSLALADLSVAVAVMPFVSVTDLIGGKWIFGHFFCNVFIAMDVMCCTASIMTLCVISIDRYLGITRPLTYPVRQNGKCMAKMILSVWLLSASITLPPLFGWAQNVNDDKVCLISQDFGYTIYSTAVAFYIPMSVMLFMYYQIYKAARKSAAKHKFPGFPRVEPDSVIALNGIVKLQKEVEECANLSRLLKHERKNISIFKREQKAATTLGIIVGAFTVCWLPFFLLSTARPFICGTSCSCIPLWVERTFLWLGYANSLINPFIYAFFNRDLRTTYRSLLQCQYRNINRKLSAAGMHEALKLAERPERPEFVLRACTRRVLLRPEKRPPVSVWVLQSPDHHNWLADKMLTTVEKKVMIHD
Sequence of 5-hydroxytryptamine receptor 2A (P28223 whole entry): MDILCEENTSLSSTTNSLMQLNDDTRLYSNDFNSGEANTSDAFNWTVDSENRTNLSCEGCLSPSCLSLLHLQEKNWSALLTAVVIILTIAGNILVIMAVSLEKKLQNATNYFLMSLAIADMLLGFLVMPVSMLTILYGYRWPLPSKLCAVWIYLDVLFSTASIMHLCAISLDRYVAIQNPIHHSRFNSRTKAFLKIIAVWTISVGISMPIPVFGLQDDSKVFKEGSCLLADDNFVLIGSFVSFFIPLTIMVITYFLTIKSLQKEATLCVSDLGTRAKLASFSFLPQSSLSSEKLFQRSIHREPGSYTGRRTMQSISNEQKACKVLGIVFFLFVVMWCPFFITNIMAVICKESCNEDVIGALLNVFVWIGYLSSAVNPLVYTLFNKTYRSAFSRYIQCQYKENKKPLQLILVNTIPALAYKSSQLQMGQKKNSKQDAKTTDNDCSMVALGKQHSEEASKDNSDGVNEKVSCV
T1 sequence (P50406 whole entry): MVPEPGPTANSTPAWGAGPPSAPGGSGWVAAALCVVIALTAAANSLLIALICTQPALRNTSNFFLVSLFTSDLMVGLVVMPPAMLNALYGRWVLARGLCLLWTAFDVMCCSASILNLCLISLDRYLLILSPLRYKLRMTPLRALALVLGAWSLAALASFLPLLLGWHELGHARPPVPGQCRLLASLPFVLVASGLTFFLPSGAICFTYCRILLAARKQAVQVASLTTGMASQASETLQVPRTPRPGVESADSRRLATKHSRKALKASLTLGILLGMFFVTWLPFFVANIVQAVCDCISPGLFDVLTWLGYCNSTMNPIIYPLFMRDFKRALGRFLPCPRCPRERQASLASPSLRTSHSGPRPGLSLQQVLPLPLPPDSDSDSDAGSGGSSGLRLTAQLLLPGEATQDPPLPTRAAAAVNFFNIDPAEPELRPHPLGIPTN
Sequence of D(2) dopamine receptor (P14416 whole entry): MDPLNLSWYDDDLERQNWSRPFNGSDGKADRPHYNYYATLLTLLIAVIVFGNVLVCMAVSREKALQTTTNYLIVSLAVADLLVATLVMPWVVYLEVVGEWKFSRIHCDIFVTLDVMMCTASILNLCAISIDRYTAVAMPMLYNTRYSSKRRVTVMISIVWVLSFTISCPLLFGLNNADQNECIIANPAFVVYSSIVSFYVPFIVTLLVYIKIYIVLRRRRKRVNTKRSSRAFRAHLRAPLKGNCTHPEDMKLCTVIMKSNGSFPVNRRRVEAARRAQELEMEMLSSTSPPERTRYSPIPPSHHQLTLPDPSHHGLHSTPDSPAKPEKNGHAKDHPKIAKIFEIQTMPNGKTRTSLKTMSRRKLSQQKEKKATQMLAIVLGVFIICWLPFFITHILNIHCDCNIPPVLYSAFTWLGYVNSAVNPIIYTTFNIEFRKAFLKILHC

Ki [1]: 167 nM
Ki [2]: 5320 nM
half-life at 1 h ([3]; liver microsomes): 8 min
microsomal CLint at 1 h ([4]; liver microsomes): 184 µL/min/mg
Ki [5]: 21 nM
Ki [6]: 42 nM
SMILES: COc1ccc2[nH]c(C)c(CCNCc3ccc(-c4ccc(O)cc4)o3)c2c1

Ki [1]: 1210 nM
Ki [2]: 8640 nM
half-life at 1 h ([3]; microsomes): 14 min
Ki [8]: 3940 nM
Ki [6]: 791 nM
SMILES: Fc1ccc2c(CCNCc3cccc(OCC(F)(F)C(F)F)c3)c[nH]c2c1 [IDALOPIRDINE]
Activity [7]: Active

Ki [5]: 185 nM
SMILES: Clc1cccc(-c2ccc(CNCCc3c[nH]c4ccccc34)o2)c1

Ki [5]: 247 nM
SMILES: COc1cccc(-c2ccc(CNCCc3c[nH]c4cccc(OC)c34)o2)c1

Ki [5]: 486 nM
SMILES: CC(C)Oc1cccc(-c2ccc(CNCCc3c[nH]c4ccccc34)o2)c1

Ki [1]: 1020 nM
Ki [2]: 9860 nM
Ki [8]: 1050 nM
Ki [5]: 101 nM
Ki [6]: 843 nM
SMILES: COc1ccc2[nH]cc(CCNCc3ccc(-c4cnc5ccccc5c4)o3)c2c1

half-life at 1 h ([3]; microsomes): 96 min
microsomal CLint at 1 h ([4]; microsomes): 14.4 µL/min/mg
SMILES: COc1cc2c(cc1OC)C(=O)C(CC1CCN(Cc3ccccc3)CC1)C2 (configuration not stated) [DONEPEZIL]

Ki [5]: 419 nM
SMILES: c1coc(-c2ccc(CNCCc3c[nH]c4ccccc34)o2)c1

Ki [5]: 531 nM
SMILES: Oc1ccc(-c2ccc(CNCCc3c[nH]c4ncccc34)o2)cc1

Ki [9]: 21 nM
SMILES: N=C(NC1=NC2CCCCC2C(=O)N1)N1CCC(Cc2ccccc2)CC1 (configuration not stated)

SMILES: COc1ccc2[nH]cc(CC(C)NCc3ccc(-c4ccc(O)cc4)o3)c2c1 (configuration not stated)
Ki [5]: 345 nM

Ki [9]: 894 nM
SMILES: Oc1c(CN2CCCC2)cc(CSc2ccccc2)c2cccnc12

Ki [5]: 334 nM
SMILES: CCCN(CCc1c[nH]c2ccccc12)Cc1ccc(-c2ccccc2)o1

Ki [8]: 431 nM
Ki [5]: 60 nM
Ki [6]: 33 nM
SMILES: Oc1ccc(-c2ccc(CNCCc3c[nH]c4ccc(Cl)cc34)o2)cc1

Ki [5]: 266 nM
SMILES: Clc1cc(Cl)cc(-c2ccc(CNCCc3c[nH]c4ccccc34)o2)c1

Ki [5]: 693 nM
SMILES: COc1ccc(-c2ccc(CNCCc3c[nH]c4ccccc34)o2)cc1OC

SMILES: CCc1cc2c(N3CCN(C)CC3)nc(C)nc2s1
Ki [9]: 316 nM

SMILES: CC(Cc1c[nH]c2ccccc12)NCc1ccc(-c2ccc(O)cc2)o1 (configuration not stated)
Ki [5]: 475 nM

Ki [5]: 132 nM
SMILES: COc1cccc2[nH]cc(CCNCc3ccc(-c4ccc(F)cc4)o3)c12

Ki [5]: 522 nM
SMILES: Oc1ccc(-c2ccc(CNCCc3coc4ccc(F)cc34)o2)cc1

Ki [1]: 178 nM
Ki [2]: 2100 nM
Ki [8]: 732 nM
Ki [5]: 14 nM
Ki [6]: 131 nM
SMILES: COc1cccc2[nH]cc(CCNCc3ccc(-c4ccc(O)cc4)o3)c12

Ki [9]: 594 nM
SMILES: CC1=CC=CN2C(=O)C3C=C(S(=O)(=O)c4ccccc4)C(=N)N(Cc4ccc(F)cc4)C3N=C12 (configuration not stated)

Ki [1]: 676 nM
Ki [2]: 1280 nM
Ki [8]: 125 nM
Ki [5]: 91 nM
Ki [6]: 461 nM
SMILES: c1ccc(-c2ccc(CNCCc3c[nH]c4ccccc34)o2)cc1

SMILES: COc1cccc(-c2ccc(CNC(C)Cc3cn(C)c4ccccc34)o2)c1 (configuration not stated)
Ki [5]: 1030 nM

Ki [5]: 220 nM
SMILES: c1ccc2c(CCNCc3ccc(-c4ccc5c(c4)OCO5)o3)c[nH]c2c1

Ki [5]: 152 nM
SMILES: c1ccc(-c2ccc(CNCCc3c[nH]c4ccccc34)s2)cc1

Ki [5]: 264 nM
SMILES: c1ccc(-c2ccc(CNCCc3c[nH]c4ccccc34)[nH]2)cc1

Ki [1]: 1730 nM
Ki [2]: 1500 nM
Ki [8]: 146 nM
Ki [5]: 121 nM
Ki [6]: 28 nM
SMILES: COc1ccc2[nH]cc(CCNCc3ccc(-c4cn[nH]c4)o3)c2c1

Ki [5]: 109 nM
SMILES: COc1cccc2[nH]cc(CCNCc3ccc(-c4ccccc4)o3)c12

Ki [2]: 51 nM
Ki [8]: 399 nM
Ki [5]: 5 nM
Ki [6]: 22 nM
SMILES: Cc1ccc2[nH]cc(CCNCc3ccc(-c4ccc(O)cc4)o3)c2c1

Ki [2]: 871 nM
Ki [8]: 91 nM
Ki [5]: 76 nM
Ki [6]: 216 nM
SMILES: COc1cccc(-c2ccc(CNCCc3c[nH]c4ccc(OC)cc34)o2)c1

Ki [1]: 1360 nM
Ki [2]: 3300 nM
Ki [8]: 334 nM
Ki [5]: 90 nM
Ki [6]: 35 nM
SMILES: COc1ccc(-c2ccc(CNCCc3c[nH]c4ccc(OC)cc34)o2)cc1

half-life at 1 h ([3]; microsomes): 10 min
microsomal CLint at 1 h ([4]; microsomes): 138 µL/min/mg
Ki [5]: 199 nM
SMILES: COc1ccc2[nH]cc(CCN(C)Cc3ccc(-c4ccc(O)cc4)o3)c2c1

Ki [9]: 61 nM
SMILES: CN1CCN(c2oc(-c3ccccc3Cl)nc2S(=O)(=O)c2ccccc2)CC1

Ki [9]: 596 nM
SMILES: CN1C=C2C(NC(=S)NC2c2ccc(F)cc2)/C(=C\c2ccc(F)cc2)C1 (configuration not stated)

Ki [1]: 220 nM
Ki [2]: 206 nM
half-life at 1 h ([3]; liver microsomes): 22 min
microsomal CLint at 1 h ([4]; liver microsomes): 63.4 µL/min/mg
Ki [8]: 120 nM
Ki [5]: 3 nM
Ki [6]: 41 nM
SMILES: COc1ccc2[nH]cc(CCNCc3ccc(-c4ccc(O)cc4)o3)c2c1

SMILES: CC(CSc1nc2ccccc2c(=O)n1-c1ccc(Cl)cc1)N(C)C (configuration not stated)
Ki [9]: 20 nM

Ki [5]: 303 nM
SMILES: Cn1cc(CCNCc2ccc(-c3ccccc3)o2)c2ccccc21

Ki [5]: 1460 nM
SMILES: CC(=O)Oc1ccc(-c2ccc(CNCCc3c[nH]c4ccccc34)o2)cc1

Ki [5]: 556 nM
SMILES: COc1cccc(-c2ccc(CNCCc3cn(C)c4ccccc34)o2)c1

Ki [5]: 201 nM
SMILES: c1ccc2c(-c3ccc(CNCCc4c[nH]c5ccccc45)o3)cccc2c1

Ki [1]: 571 nM
Ki [2]: 2170 nM
Ki [8]: 218 nM
Ki [5]: 67 nM
Ki [6]: 607 nM
SMILES: COc1ccc2[nH]cc(CCNCc3ccc(-c4ccc(Cl)cc4)o3)c2c1

Ki [9]: 7 nM
SMILES: CN1CCN(c2nc(NCc3ccccc3)c3c(n2)N(C)NC3)CC1

Ki [9]: 58 nM
SMILES: COc1ccc(Cc2nc(N3CCNCC3)nc3cccnc23)c(OC)c1

Ki [9]: 198 nM
SMILES: Cc1nc(N2CCCN(C)CC2)c2c3c(sc2n1)CCC3

Ki [1]: 757 nM
Ki [2]: 1620 nM
half-life at 1 h ([3]; liver microsomes): 6 min
microsomal CLint at 1 h ([4]; liver microsomes): 222 µL/min/mg
Ki [8]: 292 nM
Ki [5]: 7 nM
Ki [6]: 175 nM
SMILES: Oc1ccc(-c2ccc(CNCCc3c[nH]c4ccccc34)o2)cc1

Ki [9]: 8880 nM
SMILES: CN1CCN(c2ccnc(SCc3ccccc3Cl)n2)CC1

Ki [5]: 418 nM
SMILES: c1ccc2c(-c3ccc(CNCCc4c[nH]c5ccccc45)s3)cccc2c1

Ki [9]: 875 nM
SMILES: Cc1cc(OCCN(C)C)nc(NCc2ccccc2)n1

Ki [1]: 376 nM
Ki [2]: 895 nM
half-life at 1 h ([3]; microsomes): 6 min
microsomal CLint at 1 h ([4]; microsomes): 251 µL/min/mg
inhibition at 1 µM [10]: 99%
Ki [8]: 1010 nM
Ki [5]: 2 nM
Ki [6]: 11 nM
SMILES: Oc1ccc(-c2ccc(CNCCc3c[nH]c4ccc(F)cc34)o2)cc1

Ki [5]: 1700 nM
SMILES: COc1ccc2occ(CCNCc3ccc(-c4ccc(O)cc4)o3)c2c1

Ki [5]: 210 nM
SMILES: COc1ccc2[nH]cc(CCNCc3ccc(-c4cc(Cl)cc(Cl)c4)o3)c2c1

Ki [5]: 774 nM
SMILES: O=[N+]([O-])c1ccc(-c2ccc(CNCCc3c[nH]c4ccccc34)o2)cc1

Ki [1]: 446 nM
Ki [2]: 2730 nM
Ki [8]: 202 nM
Ki [5]: 2 nM
Ki [6]: 96 nM
SMILES: Oc1ccc(-c2ccc(CNCCc3c[nH]c4cc(F)ccc34)o2)cc1

Ki [1]: 368 nM
Ki [2]: 525 nM
Ki [8]: 775 nM
Ki [5]: 61 nM
Ki [6]: 199 nM
SMILES: CN(CCc1c[nH]c2ccccc12)Cc1ccc(-c2ccccc2)o1

Ki [1]: 391 nM
Ki [2]: 3150 nM
Ki [8]: 64 nM
Ki [5]: 55 nM
Ki [6]: 29 nM
SMILES: COc1ccc2[nH]cc(CCNCc3ccc(-c4cccc(O)c4)o3)c2c1
